Measured values taken from patent US6607893B2, “Diacylglycerol acyltransferase (DGAT) assay” (Warner-Lambert Company, priority 2000, dated 2003).
One block for each molecule: values may come before it.

How the values were obtained:
[1] = test system: diacylglycerol acyltransferase (DGAT); test: DGAT enzyme assay, rat liver microsomes, [14C]triglyceride by TLC or 1-step extraction; conditions: for Production of [14C]TAG: 0.8% solvent in reaction
Protocol: Rats were euthanized using CO2 affixation; their livers were immediately removed and placed in ice-cold microsome buffer (MC buffer) consisting of 125 mM sucrose, 3.0 mM imidazole, pH 7.4. Livers were cut into approximately 10 pieces, placed into 20 mL of ice cold MC buffer per liver and homogenized on ice in a glass Dounce power homogenizer using 10 up-and-down strokes. Homogenates were centrifuged at 1700 rpm in a Beckman JA-14 rotor for 10 minutes at 4° C. The supernatant was removed and placed on ice. The pellet was resuspended in 4.0 mL MC buffer per liver, rehomogenized as described above, and centrifuged at 1700 rpm in a Beckman JA-14 rotor for 10 minutes at 4° C. This supernatant was combined with the previous supernatant and centrifuged at 13,000 rpm in a Beckman JA-14 rotor for 20 minutes at 4° C. The supernatant was transferred to new tubes on ice, and the pellet was discarded. The supernate was centrifuged at 35,000 rpm in a Beckman Ti-70 rotor for 60 minutes at 4° C., and the resulting pellet, containing microsomal membranes, was resuspended in ice cold MC buffer using 17 strokes of a glass Dounce power homogenizer. Microsomal protein concentrations were determined by the Dc Protein Assay, and BSA was used to generate the standard curve. Microsomes were diluted to final protein concentration of 10 to 20 mg/mL. Microsomes were aliquoted into 1.0-mL tubes and stored in a liquid N2 cryofreezer.
DGAT Assay Buffer (DAB): 0.25 M sucrose, 1.0 mM EDTA, pH 8.0, 150 mM Tris-HCl, pH 7.4, and 1.25 mg/mL fatty acid free BSA.
Compounds were dissolved in DMSO and diluted to make 10× with DAB (10×compound) and kept at room temperature until the assay was performed.
Frozen aliquots of microsomes (10-20 mg/mL total protein) were thawed on ice and diluted to make a 5× working stock at the indicated concentrations with MC buffer and stored on ice until use.
The DGAT assay reaction was performed as follows: 5 μL of 10× compound was added to Perkin Elmer thin-walled reaction tubes followed by 35 μL of DGAT substrate mixture and vortexed. The reaction was started by the addition of 10 μL of the diluted 5× microsomes, vortexed, and incubated in a Perkin Elmer 9600 thermocycler for the indicated times and temperatures.
Reactions were stopped by the addition of 10 μL of 0.75N HCl. Samples were then spotted onto TLC plates and dried in a gravity convection oven at 70° C. for 30 minutes. Plates were developed in a 27×7.5×26 cm TLC chamber for 60 minutes at room temperature in 102 mL of isooctane:ethyl ether:acetic acid (75:25:2) for triglyceride determination. TLC plates were removed from the chamber, dried in a gravity convection oven at 70° C. for 30 minutes, wrapped in cellophane, and exposed to phosphorimager plates overnight. Phosphorimager plates were scanned on a phosphorimager and images were analyzed using ImageQuant software. A [^14C]glycerol trioleate standard was titrated onto TLC plates for mass determinations. All statistics were performed using Microsoft Excel's analysis software using a two-tailed t-test for means.
Reactions were stopped by the addition of 150 μL of AESSM followed by the addition of 300 μL of n-heptane. The mixture is pipetted 5× to mix and allowed to separate for 5 minutes at room temperature. The entire top phase, n-heptane phase, is removed to new tubes and spotted onto silica TLC plates and processed as described above (see TLC method) or placed into 5-mL scintillation vials containing scintillation cocktail and counted.

[2] = biological target: T1, diacylglycerol acyltransferase (DGAT); test: 96-well DGAT mass screen assay; type: biochemical, rat; conditions: 22° C., 60 minutes
T1 construct: IC50, DGAT activity; other: Group 1 rat liver microsome preparation; 1-Step/Scintillation; 37° C., 5 minutes; 1-Step/TLC; TLC; other: Group 2 rat liver microsome preparation; 1-Step/Scintillation
Protocol: Plates are loaded onto the robot carousel. […] The robot arm transfers the plate to multidrop 2 for the addition of 20 μL of diluted microsomes and shaken for 1.0 minute at room temperature. The robot arm transfers the plate back to the carousel where it incubates for 1.0 hour at room temperature. The robot arm transfers the plate to multidrop 3 for the addition of 150 μL of AESSM. The robot arm transfers the plate to the multimek to begin the extraction. The reaction volume is transferred to a 96-[…] polypropylene extraction plate on the multimek. The tips are washed 3×100 μL of DI H2O in a reagent reservoir with a continuous flow of DI H2O. The multimek then washes out the 96-well reaction plate with 3×100 μL of n-heptane and transfers the volume to the extraction plate. The multimek mixes the volume in the extraction plate 6×100 μL, and the plate sits for 10 seconds. The tips are washed 3×100 μL of DI H2O in a continuous flow reagent reservoir. One hundred microliters of the top n-heptane phase is transferred to a Flash plate. The robot arm transfers the Flash plate to a carousel fitted with a fume hood, which allows the n-heptane to evaporate for a minimum of 6 hours. The plates are transferred to a plate sealer to be sealed, transferred to the top count scintillation counter, and counted for 1.0 minute. Data are collected and reported to the Trillium based compound management system.

DGAT activity increase above control ([1]; 0.5% ethanol): 121% | Production of [14C]TAG [1]: 104±0.4 pmoles [14C]TAG/mg microbe pro | DGAT activity increase above controls ([1]; 4.0% ethanol): 180%
SMILES: CCO [95% EtOH, ethanol]

SMILES: CC(C)=O [Acetone, acetone]
DGAT activity increase above controls ([1]; 10.0% acetone): 394%

SMILES: ClC(Cl)Cl [Chloroform, chloroform]
DGAT activity, % of control ([1]; 0.35% chloroform): 955%

DMSO concentration at which DGAT assay showed significant changes ([1]; 37° C. and 22° C., p<0.05): 4.5%
SMILES: C[S+](C)[O-] [DMSO]
effect on DGAT activity ([1]; 37° C. and 22° C.): decreases DGAT activity in a linear manner

IC50 ([1]; read-out: IC50, DGAT activity, Group 1 rat liver microsome preparation, 1-Step/Scintillation, 37° C., 5 minutes): 1.66 µM | IC50 ([1]; read-out: IC50, DGAT activity, Group 1 rat liver microsome preparation, 1-Step/TLC, 37° C., 5 minutes): 0.95 µM | IC50 ([1]; read-out: IC50, DGAT activity, Group 1 rat liver microsome preparation, TLC, 37° C., 5 minutes): 1.07 µM | IC50 ([1]; read-out: IC50, DGAT activity, Group 2 rat liver microsome preparation, 1-Step/Scintillation, 37° C., 5 minutes): 1.12 µM | IC50 ([1]; read-out: IC50, DGAT activity, Group 2 rat liver microsome preparation, 1-Step/TLC, 37° C., 5 minutes): 1.14 µM | IC50 ([1]; read-out: IC50, DGAT activity, Group 2 rat liver microsome preparation, TLC, 37° C., 5 minutes): 1.52 µM | IC50 ([1]; read-out: IC50, DGAT activity, Group 3 rat liver microsome preparation, 1-Step/Scintillation, 37° C., 5 minutes): 2.05 µM | IC50 ([1]; read-out: IC50, DGAT activity, Group 3 rat liver microsome preparation, 1-Step/TLC, 37° C., 5 minutes): 2.3 µM | IC50 ([1]; read-out: IC50, DGAT activity, Group 3 rat liver microsome preparation, TLC, 37° C., 5 minutes): 1.74 µM | IC50 ([1]; read-out: IC50, DGAT activity, Group 4 rat liver microsome preparation, 1-Step/Scintillation, 37° C., 5 minutes): 1.1 µM | IC50 ([1]; read-out: IC50, DGAT activity, Group 4 rat liver microsome preparation, 1-Step/TLC, 37° C., 5 minutes): 0.73 µM | IC50 ([1]; read-out: IC50, DGAT activity, Group 4 rat liver microsome preparation, TLC, 37° C., 5 minutes): 0.91 µM | IC50 ([1]; read-out: IC50, DGAT inhibition, 0.8% ethanol and TLC): 2.6 µM | IC50 ([1]; read-out: IC50, DGAT inhibition, 0.8% ethanol extracted (1-step) and run on TLC): 2.4 µM | IC50 ([1]; read-out: IC50, DGAT inhibition, […] acetone:chloroform (8:2) and TLC): 2 µM | IC50 ([1]; read-out: IC50, DGAT inhibition, […] acetone:chloroform (8:2) extracted (1-step) and run on TLC): 2.5 µM | IC50 ([2]; manually extracted samples): 1.7 µM | IC50 ([2]; plate 1, 96-well mass screen extraction): 1.5 µM | IC50 ([2]; plate 2, 96-well mass screen extraction): 1.27 µM
SMILES: Cc1ccc2c(c1)Oc1ccc(NC(=O)c3ccc(O)cc3)cc1C(=O)N2C [N-(7,10-dimethyl-11-oxo-10,11-dihydro-dibenzo[b,f][1,4]oxazepin-2-yl)-4-hydroxy-benzamide]

Production of [14C]TAG [1]: 20±0.02 pmoles [14C]TAG/mg microbe pro
SMILES: CCCCCCCC/C=C\CCCCCCCC(=O)OCCOCC(OCCO)C1OCC(OCCO)C1OCCO (stereo not drawn) [Tween 80]
